Experimental findings from patent US20240043372A1, “SUBSTITUTED AROMATIC COMPOUNDS AND PHARMACEUTICAL COMPOSITIONS THEREOF” (PHARMACEUTIQUE INGENEW INC., priority 2020, published 2024) are described below.

“Also recorded” adds a separate entry of the source.

Experiment [1] has as its system PC-3 cells (human prostate cancer cells). Description: PC-3 cell proliferation (MTT). It counts as cell-based. As to conditions: 24 hours. The protocol: Antiproliferative activity of representative compounds on cancer cells was also undertaken by using PC-3 cells (human prostate cancer cells). PC-3 cells were cultured for 24 hours in 96-well plates with or without Compounds or Positive Control (PCtrl: sodium 2-(2-hydroxy-3,5-dipentylphenyl)acetate) or Setogepram CAS No.: 1002101-19-0 from MedChemExpress LLC, USA) at various concentrations. The last four hours of incubation, 50 μl of a freshly made solution of MTT at 2 mg/ml in PBS were added. Cells were harvested, 150 μl of DMSO were added to solubilize the formazan crystal formed and the plates were read the plate at 570 nm.

Another experiment deals with human glioblastoma U87. As to the kind of experiment: Avatar CAM assay, U87 tumour. It counts as in vivo. As to conditions: for Anticancer Activity U87: Avatar CAM, tumour volume at day 16, symbols X to XXXX not defined. The protocol: (§1) In this example, representative compounds of the present disclosure were tested for their respective effect on tumors using a model of Avatar Chick Chorioallantoic Membrane (CAM) assay. CAM assays have been widely used to study angiogenesis and tumor invasion of colorectal, prostate and brain cancers, as well as for studying patient-derived xenograft for potential personalized medicine.
(§2) The present inventor has tested representative compounds from the present disclosure or a Positive Control (PCtrl: sodium 2-(2-hydroxy-3,5-dipentylphenyl)acetate) as per the following. Fertilized eggs from white leghorn chicken were used and incubated in an Ova-Easy egg incubator at 37° C. with 60% humidity. At day 3, eggs were cracked. At day 9, U87 (human glioblastoma) cell suspensions (1×10^6 cells), or Caki cells or patient-derived xenograph (glioblastoma fragment) were mixed (1:1) with growth factor reduced Matrigel™ in a total volume of 20 μl for cell lines and POX-patient fragments were placed directly on top of the CAM and were returned to the incubator. Intravenous injection at day 11 or topical administration (Day 11 to Day 16) with or without the compounds. At day 16, chick embryos were killed by decapitation. Tumours were removed and tumour volumes were calculated using the formula: (Dd^2/3).

For experiment [2], the system named is carboplatin-resistant PDX glioblastoma (GBM20-75). As to the kind of experiment: Avatar CAM assay, patient-derived xenograft glioblastoma. It counts as in vivo, human. To be noted: FIG. 3, PDX glioblastoma resistant to carboplatin. How it is done:
as §1, §2
A general note: In xenograft studies the graft and the host belong to different species.

Experiment [3] deals with human renal carcinoma Caki cells. Description: Avatar CAM assay, Caki tumour. Type of experiment: in vivo. To be noted: for Anticancer Activity Caki: Avatar CAM, tumour volume at day 16, symbols X to XXXX not defined; for anticancer activity relative to Sorafenib: FIG. 2, Caki cells in CAM Avatar model. The protocol: as §1, §2
Experiment [4] relates to human fibrosarcoma HT1080 cell. As to the kind of experiment: Avatar CAM assay, HT1080 tumour. It counts as in vivo. To be noted: tumour volume at day 16, symbols X to XXXX not defined.
Experiment [5] relates to PDX-fragments from IPF lungs. Description: Avatar CAM model, PDX-IPF lung fragments (volume, Masson's trichrome). It counts as in vivo, human. To be noted: for collagen deposition in the PDX-IPF fragment: FIG. 5, Masson's trichrome staining. How it is done:
Avatar CAM model was also used to determine the antifibrotic activity of the representative compounds. Briefly, fertilized eggs from white leghorn chicken were used and incubated in an Ova-Easy egg incubator at 37° C. with 60% humidity. At day 3, eggs were cracked. At day 9, PDX-fragments from IPF lungs were grafted on top of the CAM and were returned to the incubator. Treatment by intravenous injection of compounds was performed at day 11 and at day 16, chick embryos were killed by decapitation. IPF-PDX fragments were removed and volumes were calculated using the formula: (Dd^2/3). Fibrosis was determined by a Masson's trichrome staining.

In general, inhibition refers to the drop in the measured response relative to a control, in per cent. In experiment [1], `CCCCCc1cc(CCCCC)c(O)c(CC(=O)O)c1` [PCtrl, sodium 2-(2-hydroxy-3,5-dipentylphenyl)acetate, reference compound] had an inhibition at 12.5 µM of 0%, an inhibition at 25 µM of 0%, an inhibition at 50 µM of 0% and an inhibition at 100 µM of 0%. 200 µM produced 20% inhibition in experiment [1].
As for `CCCCCc1cc(CCCCC)c(O)c(CC(N)=O)c1` [Representative Compound 1], in experiment [1], the inhibition at 12.5 µM worked out at 0%, the inhibition at 25 µM stood at 0%, 50 µM produced 0% inhibition and the inhibition at 100 µM is 0%. Further, the inhibition at 200 µM in experiment [1] came out at 0%.
On to `CCCCCc1cc(CCO)c(O)c(CCCCC)c1` [Representative Compound 2], for which the “Anticancer Activity U87” value with human glioblastoma U87 is reported as “XXX”. In addition, the “growth (volume) response of PDX glioblastoma to treatment” value in experiment [2] is listed as “does not respond”. For the same compound, in experiment [3], the “Anticancer Activity Caki” value is on record as “XXXX” and the “anticancer activity relative to Sorafenib” value is given as “reach the anticancer activity of Sorafenib”. Moreover, in experiment [1], the inhibition at 12.5 µM was determined as 0%, the inhibition at 25 µM amounted to 63.6%, testing at 50 µM gave an inhibition of 70% and the inhibition at 100 µM was 72.2%. This compound gave an inhibition at 200 µM in experiment [1] of 66.3%.
`CCCCCc1cc(CCO)c(N)c(CCCCC)c1` [Representative Compound 3]: in experiment [1], the inhibition at 12.5 µM stood at 0%, at 25 µM the inhibition was 39.1%, testing at 50 µM gave an inhibition of 67.4% and the inhibition at 100 µM was 62.1%. For the same compound, the inhibition at 200 µM in experiment [1] was 65.8%.
Turning to `CCCCCc1cccc(CCO)c1` [Representative Compound 4], the “Anticancer Activity HT1080” value in experiment [4] is on record as “XXX”. In experiment [1], this compound showed an inhibition at 62.5 µM of 26.1%, an inhibition at 125 µM of 30.3%, an inhibition at 250 µM of 74.2% and an inhibition at 500 µM of 72.9%. For the same compound, the inhibition at 1000 µM in experiment [1] came out at 70.4%. For the same compound, in experiment [5] (Avatar CAM, reduction of volume growth of PDX-IPF fragments, symbols not defined), the “Antifibrotic Activity PDX (IPF lungs)” value is “XXXX”. Further, the “volume of the PDX-IPF fragments” value in experiment [5] (FIG. 4, intravenous injection at day 11, volume at day 16) is listed as “reduces significantly the volume”. Moreover, the “collagen deposition in the PDX-IPF fragment” value in experiment [5] is reported as “reduce collagen deposition”.
In the case of `OCCc1cc(Cc2ccccc2)cc(Cc2ccccc2)c1` [Representative Compound 5], the “Anticancer Activity U87” value in the experiment with human glioblastoma U87 is “XXXX”. The “anticancer activity relative to carboplatin” value in the experiment on human glioblastoma U87 (FIG. 1, U87 in CAM Avatar model) is reported as “reached the anticancer activity of carboplatin”. Further, in experiment [3], the “Anticancer Activity Caki” value is on record as “XXXX” and the “anticancer activity relative to Sorafenib” value is on record as “reach the anticancer activity of Sorafenib”. In addition, in experiment [4], the “Anticancer Activity HT1080” value is “XXX”. In experiment [1], the inhibition at 12.5 µM was found to be 1.7%, the inhibition at 25 µM amounted to 42.8%, at 50 µM the inhibition was 70.6% and the inhibition at 100 µM stood at 72.2%. In experiment [1], this compound had an inhibition at 200 µM of 53%.
In experiment [1], `CCCCCc1cccc(CC(=O)O)c1` [Setogepram, reference compound] displayed an inhibition at 62.5 µM of 16.8%, an inhibition at 125 µM of 5.7%, an inhibition at 250 µM of 10.4% and an inhibition at 500 µM of 0%. Moreover, in experiment [1], 1000 µM produced 0% inhibition. For the same compound, the “collagen deposition in the PDX-IPF fragment” value in experiment [5] was “reduce collagen deposition; also recorded: reduced the collagen deposition”.
As for `N.N.O=C([O-])C1(C(=O)[O-])CCC1.[Pt+2]` [carboplatin, reference compound], the “growth (volume) response of PDX glioblastoma to treatment” value in experiment [2] is “effectively resistant”.
